Source: ChEMBL document CHEMBL1687877, “Tripeptide motifs in biology: targets for peptidomimetic design” (J Med Chem, 2011)
Where a SMILES comes first, the peptide text is derived from it. Bridges are numbered along the chain shown (N, C = ends).

How the values were obtained:
[1] = Inhibition of bacterial DNA polymerase beta association with DNA polymerase delta
[2] = Inhibition of bacterial DNA polymerase beta association with DNA polymerase alpha
[3] = biological target: D(2) dopamine receptor (Homo sapiens) (UniProt P14416); test: Agonist activity at human dopamine D2 receptor at 10 nM; assay type: functional
[4] = Induction of neurite outgrowth in rat CGN cells at 7.3 uM; assay type: functional
Cadherin-2 = biological target: T1, Cadherin-2 (Homo sapiens, UniProt P19022); test: Antagonist activity at N-cadherin; assay type: functional
T1 sequence (P19022 whole entry): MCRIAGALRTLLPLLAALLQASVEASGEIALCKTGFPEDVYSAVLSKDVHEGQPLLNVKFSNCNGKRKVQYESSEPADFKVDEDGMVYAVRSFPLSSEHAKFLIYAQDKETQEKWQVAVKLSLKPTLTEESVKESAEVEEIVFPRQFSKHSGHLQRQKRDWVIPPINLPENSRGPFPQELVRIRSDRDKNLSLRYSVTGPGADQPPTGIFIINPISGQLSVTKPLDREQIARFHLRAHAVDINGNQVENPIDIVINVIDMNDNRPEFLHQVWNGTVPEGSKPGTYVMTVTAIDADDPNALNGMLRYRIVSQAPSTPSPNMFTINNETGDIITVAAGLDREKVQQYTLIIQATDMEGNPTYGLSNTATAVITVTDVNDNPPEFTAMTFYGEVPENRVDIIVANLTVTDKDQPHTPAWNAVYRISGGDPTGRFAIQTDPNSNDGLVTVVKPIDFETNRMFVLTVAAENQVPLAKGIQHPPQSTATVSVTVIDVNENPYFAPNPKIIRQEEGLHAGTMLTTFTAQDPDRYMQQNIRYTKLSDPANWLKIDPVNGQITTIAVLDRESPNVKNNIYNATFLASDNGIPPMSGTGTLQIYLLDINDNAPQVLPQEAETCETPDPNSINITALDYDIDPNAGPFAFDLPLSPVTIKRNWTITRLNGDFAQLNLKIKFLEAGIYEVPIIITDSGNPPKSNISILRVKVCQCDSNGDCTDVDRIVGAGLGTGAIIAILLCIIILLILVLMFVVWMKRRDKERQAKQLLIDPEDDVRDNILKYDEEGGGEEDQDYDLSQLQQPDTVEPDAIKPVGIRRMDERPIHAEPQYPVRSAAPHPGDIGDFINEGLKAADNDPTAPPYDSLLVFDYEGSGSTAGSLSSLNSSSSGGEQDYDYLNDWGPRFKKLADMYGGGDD

D(2) dopamine receptor (Homo sapiens), sequence (P14416 whole entry): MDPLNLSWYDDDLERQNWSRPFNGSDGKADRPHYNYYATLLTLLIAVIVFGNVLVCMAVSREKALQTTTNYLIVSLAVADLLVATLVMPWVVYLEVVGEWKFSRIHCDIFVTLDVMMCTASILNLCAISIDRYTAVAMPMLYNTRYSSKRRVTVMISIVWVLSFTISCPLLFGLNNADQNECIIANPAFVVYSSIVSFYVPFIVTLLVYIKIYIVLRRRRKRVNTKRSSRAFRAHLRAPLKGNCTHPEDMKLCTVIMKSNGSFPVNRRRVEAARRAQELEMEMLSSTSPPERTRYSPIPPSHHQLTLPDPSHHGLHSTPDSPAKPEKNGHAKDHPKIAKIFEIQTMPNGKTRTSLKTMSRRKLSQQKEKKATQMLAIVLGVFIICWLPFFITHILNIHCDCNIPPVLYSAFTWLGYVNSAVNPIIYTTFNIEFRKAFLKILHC

`CCC/C(=N\OCc1ccc(-c2ccccc2)cc1)C1C(=O)CC(C)(C2OCC(C)(C)CO2)OC1=O` (configuration not stated) gave an IC50 [1] of 90 µM and an IC50 [2] of 270 µM.

In the case of `CCC/C(=N\OC/C(Cl)=C/c1ccc(Cl)cc1)C1C(=O)CC(C)(C)CC1=O`, the IC50 [1] is reported as 290 µM and the IC50 [2] is reported as 350 µM.

With `N[C@@H](Cc1ccccc1)C(=O)NC1C(=O)N(CC(=O)O)C[C@H]1CC(=O)O` (some centres not stated) the Activity [3] was 146%.

With `CC[C@H](C)[C@@H]1NC(=O)[C@H](CC(=O)O)NC(=O)[C@H](C(C)C)NC(=O)[C@H](C)NC(=O)[C@H](Cc2cnc[nH]2)NC(=O)CNC(=O)[C@H](CC(N)=O)NC(=O)[C@H]([C@@H](C)CC)NC(=O)[C@H](CC(=O)O)NC(=O)[C@H](C(C)C)NC(=O)[C@H](C)NC(=O)[C@H](Cc2cnc[nH]2)NC(=O)[C@@H](NC(C)=O)CSSC[C@@H](C(N)=O)NC1=O` (Ac-CHAVDINGHAVDIC-NH2; disulfide 1-14) the Activity [4] was 70%.

In the case of `CC(=O)N[C@H]1CSSC[C@@H](C(N)=O)NC(=O)[C@H](CC(=O)O)NC(=O)[C@H](C(C)C)NC(=O)[C@H](C)NC(=O)[C@H](Cc2cnc[nH]2)NC1=O` (Ac-CHAVDC-NH2; disulfide 1-6), the IC50 (Cadherin-2) is reported as 5 µM.
